Results as given in ChEMBL document CHEMBL1127263, “Synthesis of B-NOR-4-AZA-5-androstane compound as 5-reductase inhibitor” (Bioorg Med Chem Lett, 1994).

Molecular target: Steroid 5-alpha-reductase (Rattus norvegicus) (UniProt P24008+P31214)
Experiment: Inhibition of rat Steroid 5-alpha-reductase was determined at 10e-8 M concentration
Type: protein assay

Sequence of Steroid 5-alpha-reductase (Rattus norvegicus) (P24008 whole entry, looked up): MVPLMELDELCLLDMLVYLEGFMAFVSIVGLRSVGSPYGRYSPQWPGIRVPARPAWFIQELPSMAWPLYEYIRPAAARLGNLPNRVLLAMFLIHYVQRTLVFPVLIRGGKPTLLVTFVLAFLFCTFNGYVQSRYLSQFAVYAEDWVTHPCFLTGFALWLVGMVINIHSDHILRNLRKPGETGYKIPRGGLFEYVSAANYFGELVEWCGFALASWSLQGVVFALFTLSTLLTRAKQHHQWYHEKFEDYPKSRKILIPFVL
Sequence of Steroid 5-alpha-reductase (Rattus norvegicus) (P31214 whole entry, looked up): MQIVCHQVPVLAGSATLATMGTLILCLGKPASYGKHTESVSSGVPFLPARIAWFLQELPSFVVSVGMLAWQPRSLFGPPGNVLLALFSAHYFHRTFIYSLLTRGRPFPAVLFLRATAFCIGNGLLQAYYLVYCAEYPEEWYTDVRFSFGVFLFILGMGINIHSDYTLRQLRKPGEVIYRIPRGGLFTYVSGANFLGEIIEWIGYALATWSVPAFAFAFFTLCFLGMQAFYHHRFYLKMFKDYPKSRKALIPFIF

CC12CCC3C(C[C@H]4NC(=O)CCC34C)C1CCC2C(=O)NC(c1ccccc1)c1ccccc1 (stereo partly specified)
inhibition: 63%
